Measured values taken from PubChem BioAssay (NCI).
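Exposure lasted 48 hours, with cells grown in 96-well plates and compounds tested at five concentrations. The concentration for full growth arrest is given as TGI.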

Experiments:
Assay in all cases: NCI tumour cell line growth inhibition, 48 h
[1] = test system: SF-268 CNS
[2] = test system: SW-620 colon
[3] = test system: SK-OV-3 ovarian
[4] = test system: UO-31 renal
[5] = test system: RPMI-8226 leukemia
[6] = test system: U251 CNS
[7] = test system: SF-539 CNS
[8] = test system: COLO 205 colon
[9] = test system: NCI-H460 lung
[10] = test system: SK-MEL-2 melanoma
[11] = test system: NCI-H23 lung
[12] = test system: HCT-116 colon
[13] = test system: K-562 leukemia
[14] = test system: HOP-62 NSCLC
[15] = test system: TK-10 renal
[16] = test system: SK-MEL-5 melanoma
[17] = test system: LOX IMVI melanoma
[18] = test system: SN12C renal
[19] = test system: KM20L2 colon
[20] = test system: XF 498 CNS

Row | SMILES | TGI [1] [µM] | TGI [2] [µM] | TGI [3] [µM] | TGI [4] [µM] | TGI [5] [µM] | TGI [6] [µM] | TGI [7] [µM] | TGI [8] [µM] | TGI [9] [µM] | TGI [10] [µM] | TGI [11] [µM] | TGI [12] [µM] | TGI [13] [µM] | TGI [14] [µM] | TGI [15] [µM] | TGI [16] [µM] | TGI [17] [µM] | TGI [18] [µM] | TGI [19] [µM] | TGI [20] [µM]
1 | NC(=O)NC1NC(=O)NC1=O (centres undefined) | > 100 | > 100 | > 100 | > 100 | > 100 | > 100 | > 100 | > 100 | > 100 | > 100 | > 100 | > 100 | > 100 | > 100 | > 100 | > 100 | > 100 | > 100 | – | –
2 | CCC(C)C(=O)OC1C(=O)OC2CC3C(C)=CC(=O)C(O)C3(C)C3C4(O)OCC23C1C(C)C4O (centres undefined) | 0.124 | 0.694 | 4.11 | 0.278 | 0.784 | < 0.0317 | 0.0315 | 0.757 | 0.659 | 0.184 | 0.0431 | 1.4 | – | 0.149 | 0.845 | 0.025 | 0.0154 | – | – | –
3 | CCOC(=O)/C=C/CC(C)(C)COC(C)=O | > 10 | > 10 | > 10 | > 10 | > 10 | – | – | – | > 10 | > 10 | > 10 | > 10 | > 10 | – | > 10 | – | > 10 | > 10 | – | –
4 | CCC1CN2CCc3cc(OC)c(OC)cc3C2CC1CC1c2cc(OC)c(OC)cc2CCN1C(=O)C(N)Cc1ccccc1 (centres undefined) | 13.7 | 10.9 | 17.8 | 5.85 | 6.07 | 5.97 | 7.48 | – | 9.23 | 6.1 | 7.64 | 1.29 | 1.93 | 7.78 | 8.53 | 5.34 | 10.9 | 10.8 | 3.52 | 10.5
5 | NCC(Cl)C(O)c1cnc(N)[nH]1 (centres undefined) | > 73.8 | 3.89 | > 44.6 | 6.38 | 2.15 | > 100 | 5.85 | 5.51 | > 44.1 | 18.3 | 16 | > 34.5 | > 100 | 5.98 | – | 47.6 | 16.8 | 32.8 | 20.8 | 9.23
6 | CC(C)=CCc1c(O)cc(O)c2c1OC(c1ccc(O)cc1)C(O)C2=O (centres undefined) | > 100 | > 100 | > 100 | 90.4 | – | 74.5 | 35.5 | > 100 | 77.3 | 50.9 | 45.8 | > 100 | > 100 | 36.3 | 60.6 | 41.4 | 35.7 | > 100 | 32.5 | 70.3
7 | COc1ccc(C2C(C(=O)O)=C(CO)Oc3cc4c(cc32)OCO4)cc1 (centres undefined) | – | > 100 | > 100 | > 100 | > 100 | > 100 | – | > 100 | > 100 | > 100 | > 100 | > 100 | – | > 100 | > 100 | > 100 | > 100 | > 100 | > 100 | > 100
8 | CCOC(=O)C1(CO)CSCCSC1 | > 100 | > 100 | > 100 | > 100 | – | > 100 | – | > 100 | > 100 | – | > 100 | > 100 | > 100 | – | > 100 | > 100 | > 100 | > 100 | – | –
9 | CCN(CC)C(=O)c1cc(OC(C)C)ccc1-c1c(C)cc(OC(C)C)c(OC)c1OC | > 100 | > 100 | > 100 | > 100 | > 100 | > 100 | > 100 | > 100 | > 100 | > 100 | > 100 | > 100 | > 100 | > 100 | > 100 | > 100 | > 100 | > 100 | > 100 | 73.9
10 | CC(=O)OC1C=C(C=O)C(O)(C=O)C2(C)CCCC(C)(C)C12 (centres undefined) | 5.35 | 0.953 | 8.68 | 5.66 | 1.5 | 7.39 | 5.74 | 2.75 | 4.21 | 6.81 | 4.92 | 3.92 | 1.73 | 14.6 | – | 2.2 | 2.93 | 5.97 | 5.11 | 4.3
